What was measured:
[1] = test system: purple nutsedge; test: Test B preemergence/postemergence greenhouse plant response rating 0 to 10; type: in vivo, Cyperus rotundus; conditions: 0 to 10 scale
Summary of the method: (§1)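 Test chemicals, dissolved in a non-phytotoxic solvent, were applied to soil at planting and, at the same time, over foliage of seedlings at the one to four leaf stage.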

[2] = test system: barnyardgrass; test: Test C flood test plant response rating 0 to 100; type: in vivo, Echinochloa crus-galli; conditions: for Plant response rating (0 to 100), Barnyardgrass: under POSTEMERGENCE head (flood test species); for Plant response rating, Barnyardgrass: flood test species listed under POSTEMERGENCE, 0 to 100 scale
Summary of the method: (§2)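 Compounds in non-phytotoxic solvent applied preemergence to sandy loam one day after planting, postemergence at the 1–4 leaf stage, or to ~2.5 cm floodwater over silt loam.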

[3] = test system: sorghum; test: Test C preemergence/postemergence greenhouse plant response rating 0 to 100; type: in vivo, Sorghum bicolor; conditions: POSTEMERGENCE; for Plant response rating, Sorghum: 0 to 100 scale
Summary of the method: as §2

[4] = test system: soybean; test: Test B preemergence/postemergence greenhouse plant response rating 0 to 10; type: in vivo, Glycine max; conditions: 0 to 10 scale
Summary of the method: as §1

[5] = test system: crabgrass; test: as above; type: in vivo, Digitaria spp.; conditions: 0 to 10 scale
Summary of the method: as §1

[6] = test system: cocklebur; test: as above; type: in vivo, Xanthium pensylvanicum; conditions: 0 to 10 scale
Summary of the method: as §1

[7] = test system: blackgrass; test: as above; type: in vivo, Alopecurus myosuroides; conditions: 0 to 10 scale
Summary of the method: as §1

[8] = test system: rice; test: as above; type: in vivo, Oryza sativa; conditions: 0 to 10 scale
Summary of the method: as §1

[9] = test system: bedstraw; test: as above; type: in vivo, Galium aparine; conditions: 0 to 10 scale
Summary of the method: as §1

[10] = test system: sugar beet; test: as above; type: in vivo, Beta vulgaris; conditions: 0 to 10 scale
Summary of the method: as §1

[11] = test system: pigweed; test: Test C preemergence/postemergence greenhouse plant response rating 0 to 100; type: in vivo, Amaranthusretroflexus; conditions: POSTEMERGENCE; for Plant response rating Pigweed: 0 to 100 scale
Summary of the method: as §2

[12] = test system: barley; test: Test B preemergence/postemergence greenhouse plant response rating 0 to 10; type: in vivo, Hordeum vulgare; conditions: 0 to 10 scale
Summary of the method: as §1

[13] = test system: morningglory; test: Test C preemergence/postemergence greenhouse plant response rating 0 to 100; type: in vivo, Ipomoea hederacea; conditions: POSTEMERGENCE; for Plant response rating, Morningglory: 0 to 100 scale
Summary of the method: as §2

[14] = test system: rice; test: Test C flood test plant response rating 0 to 100; type: in vivo, Oryza sativa; conditions: for Plant response rating (0 to 100), Rice Japonica: under POSTEMERGENCE head (flood test species); for Plant response rating Rice Japonica: flood test species listed under POSTEMERGENCE, 0 to 100 scale
Summary of the method: as §2

[15] = test system: lambsquarters; test: Test B preemergence/postemergence greenhouse plant response rating 0 to 10; type: in vivo, Chenopodium album; conditions: 0 to 10 scale
Summary of the method: as §1

[16] = test system: corn; test: Test C preemergence/postemergence greenhouse plant response rating 0 to 100; type: in vivo, Zea mays; conditions: POSTEMERGENCE; for Plant response rating, Corn: 0 to 100 scale
Summary of the method: as §2

[17] = test system: rape; test: Test B preemergence/postemergence greenhouse plant response rating 0 to 10; type: in vivo, Brassica napus; conditions: 0 to 10 scale
Summary of the method: as §1

[18] = test system: umbrella sedge; test: Test C flood test plant response rating 0 to 100; type: in vivo, Cyperus difformis; conditions: for Plant response rating (0 to 100), Umbrella sedge: under POSTEMERGENCE head (flood test species); for Plant response rating Umbrella sedge: flood test species listed under POSTEMERGENCE, 0 to 100 scale
Summary of the method: as §2

CC(C)OC(=O)COc1cc(-c2nn3c(c2Cl)CCCC3)c(F)cc1Cl [Compound 39]
4: Plant response rating, Nutsedge ([1]; Rate 200 g/ha, POSTEMERGENCE) | Plant response rating, Soybean ([4]; Rate 200 g/ha, POSTEMERGENCE) | Plant response rating, Crabgrass ([5]; POSTEMERGENCE, Rate 200 g/ha) | Plant response rating, Blackgrass ([7]; POSTEMERGENCE, Rate 50 g/ha) | Plant response rating, Blackgrass ([7]; POSTEMERGENCE, Rate 200 g/ha) | Plant response rating, Rice ([8]; POSTEMERGENCE, Rate 50 g/ha) | Plant response rating, Bedstraw ([9]; PREEMERGENCE, Rate 50 g/ha) | Plant response rating, Barley ([12]; POSTEMERGENCE, Rate 50 g/ha)
10: Plant response rating, Cocklebur ([6]; POSTEMERGENCE, Rate 50 g/ha) | Plant response rating, Cocklebur ([6]; POSTEMERGENCE, Rate 200 g/ha) | Plant response rating, Bedstraw ([9]; POSTEMERGENCE, Rate 200 g/ha) | Plant response rating, Sugar beet ([10]; POSTEMERGENCE, Rate 50 g/ha) | Plant response rating, Sugar beet ([10]; Rate 200 g/ha, POSTEMERGENCE) | Plant response rating, Sugar beet ([10]; Rate 200 g/ha, PREEMERGENCE) | Plant response rating, Lambsquarter ([15]; PREEMERGENCE, Rate 50 g/ha) | Plant response rating, Lambsquarter ([15]; Rate 200 g/ha, POSTEMERGENCE) | Plant response rating, Lambsquarter ([15]; Rate 200 g/ha, PREEMERGENCE) | Plant response rating, Rape ([17]; Rate 200 g/ha, POSTEMERGENCE) | Plant response rating, Rape ([17]; Rate 200 g/ha, PREEMERGENCE)
70: Plant response rating Umbrella sedge ([18]; 125 g/ha)
90: Plant response rating, Barnyardgrass ([2]; 62 g/ha) | Plant response rating (0 to 100), Pigweed ([11]; Rate 16 g/ha)
60: Plant response rating, Sorghum ([3]; 125 g/ha) | Plant response rating (0 to 100), Morningglory ([13]; Rate 16 g/ha) | Plant response rating Umbrella sedge ([18]; 62 g/ha)
30: Plant response rating (0 to 100), Sorghum ([3]; Rate 31 g/ha) | Plant response rating (0 to 100), Rice Japonica ([14]; Rate 31 g/ha) | Plant response rating Rice Japonica ([14]; 62 g/ha) | Plant response rating Rice Japonica ([14]; 125 g/ha) | Plant response rating, Corn ([16]; 62 g/ha) | Plant response rating, Corn ([16]; 125 g/ha) | Plant response rating (0 to 100), Corn ([16]; Rate 31 g/ha)
5: Plant response rating, Nutsedge ([1]; POSTEMERGENCE, Rate 50 g/ha) | Plant response rating, Crabgrass ([5]; POSTEMERGENCE, Rate 50 g/ha) | Plant response rating, Rape ([17]; POSTEMERGENCE, Rate 50 g/ha)
95: Plant response rating, Barnyardgrass ([2]; 125 g/ha)
50: Plant response rating (0 to 100), Barnyardgrass ([2]; Rate 16 g/ha) | Plant response rating, Sorghum ([3]; 62 g/ha)
1: Plant response rating, Cocklebur ([6]; Rate 200 g/ha, PREEMERGENCE)
0: Plant response rating, Nutsedge ([1]; PREEMERGENCE, Rate 50 g/ha) | Plant response rating, Nutsedge ([1]; Rate 200 g/ha, PREEMERGENCE) | Plant response rating, Soybean ([4]; PREEMERGENCE, Rate 50 g/ha) | Plant response rating, Soybean ([4]; Rate 200 g/ha, PREEMERGENCE) | Plant response rating, Crabgrass ([5]; PREEMERGENCE, Rate 50 g/ha) | Plant response rating, Cocklebur ([6]; PREEMERGENCE, Rate 50 g/ha) | Plant response rating, Blackgrass ([7]; PREEMERGENCE, Rate 50 g/ha) | Plant response rating, Rice ([8]; PREEMERGENCE, Rate 50 g/ha) | Plant response rating, Rice ([8]; Rate 200 g/ha, PREEMERGENCE) | Plant response rating, Barley ([12]; PREEMERGENCE, Rate 50 g/ha) | Plant response rating, Barley ([12]; Rate 200 g/ha, PREEMERGENCE) | Plant response rating (0 to 100), Umbrella sedge ([18]; Rate 16 g/ha) | Plant response rating (0 to 100), Umbrella sedge ([18]; Rate 31 g/ha)
9: Plant response rating, Bedstraw ([9]; Rate 200 g/ha, PREEMERGENCE) | Plant response rating, Lambsquarter ([15]; POSTEMERGENCE, Rate 50 g/ha)
80: Plant response rating (0 to 100), Barnyardgrass ([2]; Rate 31 g/ha)
20: Plant response rating (0 to 100), Sorghum ([3]; Rate 16 g/ha) | Plant response rating (0 to 100), Rice Japonica ([14]; Rate 16 g/ha) | Plant response rating (0 to 100), Corn ([16]; Rate 16 g/ha)
100: Plant response rating Pigweed ([11]; 62 g/ha) | Plant response rating Pigweed ([11]; 125 g/ha) | Plant response rating (0 to 100), Pigweed ([11]; Rate 31 g/ha) | Plant response rating, Morningglory ([13]; 62 g/ha) | Plant response rating, Morningglory ([13]; 125 g/ha) | Plant response rating (0 to 100), Morningglory ([13]; Rate 31 g/ha)
6: Plant response rating, Rice ([8]; Rate 200 g/ha, POSTEMERGENCE) | Plant response rating, Barley ([12]; POSTEMERGENCE, Rate 200 g/ha)
8: Plant response rating, Sugar beet ([10]; PREEMERGENCE, Rate 50 g/ha) | Plant response rating, Rape ([17]; PREEMERGENCE, Rate 50 g/ha)
2: Plant response rating, Soybean ([4]; POSTEMERGENCE, Rate 50 g/ha) | Plant response rating, Crabgrass ([5]; Rate 200 g/ha, PREEMERGENCE) | Plant response rating, Blackgrass ([7]; Rate 200 g/ha, PREEMERGENCE)

From patent US6358885B1, “Substituted phenylheterocyclic herbicides” (Mississippi State University, priority 1992, dated 2002)
